# In publication PMC4610730 (Journal of medicinal chemistry, 2015):
# Tests used:
# [1] = LC-MS analysis of aged DMSO stocks; assay type: physicochemical; conditions: DMSO stock, LC-MS on day 38; for Decomposition product observed: bis-enone (equivalent to 8) / Decomposition product observed: carboxylic acid (equivalent to 6) / Decomposition product observed: lactam (equivalent to 5): Table 2; for Decomposition product observed: carboxylic acid (analogous to 6) / Decomposition product observed: enone (analogous to 8) / Decomposition product observed: lactam (analogous to 5): Table 1
# [2] = Storage stability of isolated decomposition products; assay type: physicochemical; conditions: significant periods of time
# APOBEC3A (A3A) = APOBEC3A (A3A) (Homo sapiens, UniProt P31941); test: Fluorescence-based ssDNA C-to-U DNA deaminase assay, A3A; assay type: biochemical
# APOBEC3G (A3G) = APOBEC3G (A3G) (Homo sapiens, UniProt Q9HC16); test: Fluorescence-based ssDNA C-to-U DNA deaminase assay, A3G; assay type: biochemical; conditions: for A3G inhibitory activity: substructures of the decomposition products, data not shown
# [3] = Aging of 1 under photochemical conditions; assay type: physicochemical; conditions: 10 mM DMSO, visible light 300 W, N2 atmosphere (balloon, 1 atm), 9 h, no sensitizer
# [4] = Aging of DMSO stocks of 1 under varied conditions; assay type: physicochemical
# [5] = freshly synthesized and solubilized, day 0, dose response up to 200 μM
# APOBEC3G (A3G), sequence (Q9HC16 whole entry): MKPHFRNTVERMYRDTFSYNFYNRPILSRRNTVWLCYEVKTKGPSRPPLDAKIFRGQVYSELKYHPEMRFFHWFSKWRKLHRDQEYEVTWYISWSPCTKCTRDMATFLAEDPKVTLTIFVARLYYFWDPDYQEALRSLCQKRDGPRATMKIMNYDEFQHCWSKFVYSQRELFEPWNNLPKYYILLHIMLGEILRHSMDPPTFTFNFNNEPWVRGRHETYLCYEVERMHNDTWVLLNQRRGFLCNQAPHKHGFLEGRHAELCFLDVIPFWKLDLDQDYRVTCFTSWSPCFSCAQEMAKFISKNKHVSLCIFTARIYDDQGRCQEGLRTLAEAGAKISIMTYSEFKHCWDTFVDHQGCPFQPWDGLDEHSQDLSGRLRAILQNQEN
# APOBEC3A (A3A), sequence (P31941 whole entry): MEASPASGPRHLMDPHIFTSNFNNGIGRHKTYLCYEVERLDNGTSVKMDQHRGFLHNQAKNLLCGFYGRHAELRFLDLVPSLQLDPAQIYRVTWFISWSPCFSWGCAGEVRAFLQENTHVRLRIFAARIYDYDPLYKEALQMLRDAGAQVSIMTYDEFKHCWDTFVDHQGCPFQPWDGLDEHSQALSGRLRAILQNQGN
SMILES,Decomposition product observed: bis-enone (equivalent to 8) [1],Decomposition product observed: carboxylic acid (equivalent to 6) [1],Decomposition product observed: lactam (equivalent to 5) [1],Decomposition product observed: carboxylic acid (analogous to 6) [1],Decomposition product observed: enone (analogous to 8) [1],Decomposition product observed: lactam (analogous to 5) [1],also measured
Cc1ccc(-c2cc(C(=O)NC(C)C3CCCO3)c3ccccc3n2)o1 (stereo not drawn) [compound 25],+ 367.2 (367.2),+ 315.1 (315.1),+ 287.1 (287.1),,,,
Cc1ccc(-c2cc(C(=O)N3CCN(S(C)(=O)=O)CC3)c3ccccc3n2)o1 [compound 31],+ 416.1 (416.1),+ 364.1 (364.1),+ 336.1 (336.1),,,,
Cc1ccc(-c2ccc3ccccc3n2)o1 [compound 23],,,,-,+ 226.2 (226.2),-,
O=C(Nc1nnc(-c2ccncc2)s1)c1cc(-c2ccco2)cc2ccccc12 [compound 21],,,,+ 377.2 (377.1),+ 415.1 (415.1),-,
COC(=O)c1cc(NC(=O)c2cc(-c3ccc(C)o3)nc3ccccc23)cc(C(=O)OC)c1 [compound 32],+ 461.1 (461.1),+ 409.1 (409.1),+ 381.1 (381.1),,,,
Cc1ccc(-c2cc(C(=O)Nc3nnc(-c4ccncc4)s3)ccn2)o1 [compound 15],,,,+ 328.2 (328.0),+ 380.2 (380.1),-,
Cc1ccc(-c2cc(C(=O)Nc3nnc(-c4ccncc4)s3)c3ccccc3c2)o1 [compound 19],,,,+ 377.2 (377.1),+ 429.2 (429.1),-,
"CC(=O)/C=C\C(=O)c1cc(C(=O)Nc2nnc(-c3ccncc3)s2)c2ccccc2n1 [compound 8, (Z)-2-(4-oxopent-2-enoyl)-N-(5-(pyridin-4-yl)-1,3,4-thiadiazol-2-yl)quinoline-4-carboxamide]",,,,,,,stability for storage in organic solvents [2]: not stable
O=C(NNC(=O)c1cc(-c2ccco2)nc2ccccc12)NC1CCCCC1 [compound 30],-,+ 357.1 (357.1),+ 329.1 (329.1),,,,
c1coc(-c2ccc3ccccc3n2)c1 [compound 24],,,,-,-,-,
Cc1ccc(-c2cc(C(=O)O)ccn2)o1 [compound 16],,,,-,+ 220.1 (220.1),-,
Cc1cccc(NC(=O)c2cc(-c3ccc(C)o3)nc3ccccc23)n1 [compound 26],+ 360.2 (360.1),+ 308.1 (308.1),+ 280.1 (280.1),,,,
"Cc1ccc(-c2cc(C(=O)O)c3ccccc3n2)o1 [compound 12, 2-(5-Methylfuran-2-yl)quinoline-4-carboxylic acid]",,,,+ 218.1 (218.1),+ 270.1 (270.1),+ 190.1 (190.1),
O=C(O)c1ccnc(-c2ccco2)c1 [compound 18],,,,-,-,-,
O=C(O)c1cc(-c2ccco2)cc2ccccc12 [compound 22],,,,-,+ 254.1 (254.1),-,
"Cc1ccc(-c2cc(C(=O)Nc3nnc(-c4ccncc4)s3)c3ccccc3n2)o1 [compound 1, 2-(5-Methylfuran-2-yl)-N-(5-(pyridin-4-yl)-1,3,4-thiadiazol-2-yl)quinoline-4-carboxamide]",+ 430.1 (430.1),+ 378.1 (378.1),+ 350.1 (350.1),+ 378.1 (378.1),+ 430.1 (430.1),+ 350.1 (350.1),"inhibitory activity against A3A (APOBEC3A (A3A); aged DMSO stock of synthesized compound): never recovered; A3A inhibition (APOBEC3A (A3A); [5]): no inhibition; A3G inhibition (APOBEC3G (A3G); [5]): no inhibition; decomposition under irradiation [3]: virtually no decomposition; decomposition of DMSO stock ([4]; 10 mM DMSO stock aged in the dark): no decomposition; decomposition of DMSO stock ([4]; 10 mM DMSO stock aged in the presence of NaN3): no decomposition; decomposition of DMSO stock ([4]; 10 mM DMSO stock aged under inert conditions (N2)): drastically reduced decomposition; rate of decomposition versus storage temperature ([4]; DMSO stock stored at -20 °C vs. rt vs. 37 °C, data not shown): same rate regardless of the temperature"
O=C(O)c1cc(-c2ccco2)nc2ccccc12 [compound 14],,,,-,-,+ 190.2 (190.1),
O=C(Nc1nnc(-c2ccncc2)s1)c1cc(-c2ccco2)nc2ccccc12 [compound 13],,,,+ 378.2 (378.1),-,+ 350.2 (350.1),
O=C(Nc1nnc(-c2ccncc2)s1)c1ccnc(-c2ccco2)c1 [compound 17],,,,-,-,-,
Cc1ccc(-c2cc(C(=O)NC3CCCCC3)c3ccccc3n2)o1 [compound 27],+ 351.2 (351.2),+ 299.1 (299.1),+ 271.1 (271.1),,,,
"O=C(O)c1cc(C(=O)O)c2ccccc2n1 [quinoline-2,4-carboxylic acid]",,,,,,,A3G inhibitory activity (APOBEC3G (A3G)): inactive
Cc1ccc(-c2cc(C(=O)NCc3ccc4c(c3)OCO4)c3ccccc3n2)o1 [compound 29],+ 403.1 (403.1),+ 351.2 (351.1),+ 323.1 (323.1),,,,
COc1ccc(CCNC(=O)c2cc(-c3ccc(C)o3)nc3ccccc23)cc1 [compound 28],+ 403.2 (403.2),+ 351.2 (351.1),+ 323.1 (323.1),,,,
O=C(O)c1cc(O)nc2ccccc12 [2-Hydroxyquinonline-4-carboxylic acid],,,,,,,A3G inhibitory activity (APOBEC3G (A3G)): inactive
Cc1ccc(-c2cc(C(=O)O)c3ccccc3c2)o1 [compound 20],,,,-,+ 269.2 (269.1),-,
"Nc1nnc(-c2ccncc2)s1 [compound 4, 5-(pyridin-4-yl)-1,3,4-thiadiazol-2-amine]",,,,,,,A3G inhibitory activity (APOBEC3G (A3G)): inactive
